Data on 27 compounds can be found in US9790216B2, “3-substituted cyclopentylamine derivatives” (Merck Patent GmbH, priority 2013, dated 2017).

A value given as a limit tells only on which side of the number the result lay.

The experiment concerns the target T1, human fatty acid synthase FASN (Homo sapiens, UniProt P49327).
T1 construct: human recombinant full-length fatty acid synthase; made in house; host or cells: SF9 cells
Nature of the experiment: Biochemical activity testing of human fatty acid synthase FASN (NADPH fluorescence intensity enzyme assay). Conditions: human recombinant full-length FASN, inhibition. The source says:
• GST=Glutathione-S-transferase • FRET=Fluorescence resonance energy transfer • HTRF®=(homogenous time resolved fluorescence) • HEPES=4-(2-hydroxyethyl)-1-piperazine ethanesulfonic acid buffer • DTT=Dithiothreitol • BSA=bovine serum albumin • CHAPS=detergent; • CHAPS=3-[(3-cholamidopropyl)dimethylammonio]-1-propanesulfonate Biochemical Activity Testing of Human Fatty Acid Synthase FASN
Fatty acid synthase FASN is a multifunctional enzyme with seven catalytic activities thereby synthesising long chain fatty acids especially palmitoyl-CoA in the presence of co-factor NADPH starting from the substrates acetyl-CoA and malonyl-CoA. The reductive synthesis is realized by the oxidation of NADPH to NADP. Since NADPH has a high fluorescence intensity quantum yield compared to NADP with excitation at 340 nm and emission at 460 nm, the reaction can be monitored via the decrease in fluorescence intensity. The biochemical FASN activity testing was performed as 384 well two-time-point kinetic fluorescence intensity assay format in Greiner low volume medium binding 384-well black microtiter plates in a total assay volume of 8 μl and was used for high throughput screen. In each well 3 μl 40 nM human recombinant full-length fatty acid synthase (produced in-house in SF9 cells) were dispensed in the following assay buffer: 50 mM potassium phosphate buffer pH 7.0, 0.005% (w/v) BSA, 2 mM Glutathione, 0.02% Tween-20. Then 2 μl of 200 μM NADPH in assay buffer were added, followed by the addition of the test compounds in 10 dilution concentrations starting with 30 μM (final concentration) to get a final DMSO content of 1% (v/v). The mixture was incubated for at least 15 min at room temperature. After the pre-incubation the enzymatic reaction was started by the addition of 2 μl substrate solution (80 μM acetyl-CoA, 240 μM malonyl-CoA). A first fluorescence intensity measurement (time point one) was performed with an Envision multimode reader (Perkin Elmer LAS Germany GmbH) at excitation wavelength 340 nm (lamp mode) and emission wavelength 460 nm. The reaction was incubated for 30 minutes at room temperature. After this the fluorescence intensity was measured again in the Envision using the same parameters as described above (second time point measurement). The data were analysed by subtracting the first time point measurement value from the second time point measurement value (after the enzymatic reaction). The differences of the emission signals were determined. These reflect directly the conversion rate of NADPH. The full value used was the inhibitor-free reaction. A pharmacological zero value was used like GSK837149A (Sigma-Aldrich) in a final concentration of 5-10 μM. The inhibitory values (IC50) were determined using either the program Symyx Assay Explorer® or Condosseo® from GeneData.

T1 sequence (P49327 whole entry): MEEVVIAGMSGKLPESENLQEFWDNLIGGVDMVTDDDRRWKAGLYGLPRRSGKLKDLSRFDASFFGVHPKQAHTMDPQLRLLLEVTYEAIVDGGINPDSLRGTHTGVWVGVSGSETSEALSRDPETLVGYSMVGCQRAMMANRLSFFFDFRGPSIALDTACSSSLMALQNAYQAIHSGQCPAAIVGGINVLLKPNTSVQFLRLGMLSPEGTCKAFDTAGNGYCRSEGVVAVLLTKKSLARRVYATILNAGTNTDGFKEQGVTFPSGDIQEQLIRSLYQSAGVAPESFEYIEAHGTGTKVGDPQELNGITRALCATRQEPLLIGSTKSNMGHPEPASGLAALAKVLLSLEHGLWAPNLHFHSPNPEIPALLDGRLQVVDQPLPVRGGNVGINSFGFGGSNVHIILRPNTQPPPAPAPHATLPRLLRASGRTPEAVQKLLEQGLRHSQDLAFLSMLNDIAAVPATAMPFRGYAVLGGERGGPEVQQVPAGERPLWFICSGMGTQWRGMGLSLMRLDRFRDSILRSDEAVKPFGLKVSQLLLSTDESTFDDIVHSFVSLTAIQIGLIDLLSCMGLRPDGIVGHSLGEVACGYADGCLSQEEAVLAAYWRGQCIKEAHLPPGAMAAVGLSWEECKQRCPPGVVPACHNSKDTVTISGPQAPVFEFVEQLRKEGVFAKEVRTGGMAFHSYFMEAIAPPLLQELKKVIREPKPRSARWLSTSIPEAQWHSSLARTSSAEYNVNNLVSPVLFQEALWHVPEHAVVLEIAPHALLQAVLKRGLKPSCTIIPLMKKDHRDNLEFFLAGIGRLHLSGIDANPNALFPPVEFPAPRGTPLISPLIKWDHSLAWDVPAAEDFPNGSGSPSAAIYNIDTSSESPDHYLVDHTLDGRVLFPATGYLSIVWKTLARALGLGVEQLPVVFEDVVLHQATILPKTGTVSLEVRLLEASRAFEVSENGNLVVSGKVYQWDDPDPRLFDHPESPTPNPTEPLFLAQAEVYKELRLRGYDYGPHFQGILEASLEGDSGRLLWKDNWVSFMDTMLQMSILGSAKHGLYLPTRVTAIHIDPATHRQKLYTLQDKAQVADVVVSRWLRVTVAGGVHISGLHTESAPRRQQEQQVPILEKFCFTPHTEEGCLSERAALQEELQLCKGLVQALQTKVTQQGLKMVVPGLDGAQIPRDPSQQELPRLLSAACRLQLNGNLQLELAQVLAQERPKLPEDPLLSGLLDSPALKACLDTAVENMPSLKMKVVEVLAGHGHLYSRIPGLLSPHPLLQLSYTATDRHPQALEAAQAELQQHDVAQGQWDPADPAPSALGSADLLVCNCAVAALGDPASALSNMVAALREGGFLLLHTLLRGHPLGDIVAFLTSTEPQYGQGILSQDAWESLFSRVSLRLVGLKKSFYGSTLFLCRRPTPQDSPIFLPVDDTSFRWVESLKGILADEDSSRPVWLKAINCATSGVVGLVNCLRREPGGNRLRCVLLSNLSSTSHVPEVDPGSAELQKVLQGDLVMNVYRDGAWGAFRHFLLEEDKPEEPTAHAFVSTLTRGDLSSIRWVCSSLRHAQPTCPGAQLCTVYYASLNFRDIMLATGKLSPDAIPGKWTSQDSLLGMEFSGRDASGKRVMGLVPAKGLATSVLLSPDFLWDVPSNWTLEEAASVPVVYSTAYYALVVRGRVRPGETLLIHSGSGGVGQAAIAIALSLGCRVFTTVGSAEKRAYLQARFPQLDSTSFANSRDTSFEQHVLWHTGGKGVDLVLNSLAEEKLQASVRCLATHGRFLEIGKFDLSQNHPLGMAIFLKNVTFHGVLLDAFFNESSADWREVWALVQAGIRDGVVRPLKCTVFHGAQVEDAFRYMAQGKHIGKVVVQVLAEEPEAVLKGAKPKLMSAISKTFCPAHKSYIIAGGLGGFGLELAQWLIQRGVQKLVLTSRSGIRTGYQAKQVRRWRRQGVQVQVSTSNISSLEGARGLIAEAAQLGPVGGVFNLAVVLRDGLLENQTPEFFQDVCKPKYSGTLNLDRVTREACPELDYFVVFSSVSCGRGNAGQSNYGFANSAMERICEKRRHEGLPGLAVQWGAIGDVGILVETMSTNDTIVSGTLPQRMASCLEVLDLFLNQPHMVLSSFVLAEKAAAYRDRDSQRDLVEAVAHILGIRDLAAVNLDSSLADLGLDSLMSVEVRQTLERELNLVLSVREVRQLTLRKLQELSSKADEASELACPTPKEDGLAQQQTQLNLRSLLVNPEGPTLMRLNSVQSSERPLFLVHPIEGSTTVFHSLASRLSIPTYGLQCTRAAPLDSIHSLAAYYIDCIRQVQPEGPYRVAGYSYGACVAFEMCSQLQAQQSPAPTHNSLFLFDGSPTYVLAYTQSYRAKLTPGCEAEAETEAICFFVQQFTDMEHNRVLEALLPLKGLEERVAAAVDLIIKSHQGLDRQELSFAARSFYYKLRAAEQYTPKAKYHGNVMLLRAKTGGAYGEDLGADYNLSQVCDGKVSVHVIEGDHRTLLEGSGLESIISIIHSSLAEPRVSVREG

For orientation: IC50 means the concentration that gives 50% inhibition. As for `CN(C(=O)c1ccc(-c2ccccc2)cc1)[C@@H]1CC[C@H](n2cc(C3CC3)nn2)C1` (racemic) [Compound A29, (rac)-cis-biphenyl-4-carboxylic acid [-3-(4-cyclopropyl-[1,2,3]triazol-1-yl)-cyclopentyl]-methyl-amide], the IC50 lay within 3000 to 50000 nM.

On to `CCCc1cn([C@H]2CC[C@@H](N(C)C(=O)c3ccc(-c4ccccc4)cc3)C2)nn1` (racemic) [Compound A30, (rac)-cis-biphenyl-4-carboxylic acid methyl-[3-(4-propyl-[1,2,3]triazol-1-yl)-cyclopentyl]-amide], for which the 50% inhibitory concentration (IC50) lay within 3000 to 50000 nM.

As for `CCCc1nnc([C@H]2CC[C@@H](N(C)C(=O)c3ccc(-c4nc5ccccc5o4)cc3)C2)o1` [Compound A1, 4-benzoxazol-2-yl-N-methyl-N-[(1 R,3S)-3-(5-propyl-[1,3,4]oxadiazol-2-yl)-cyclopentyl]-benzamide], the half-maximal inhibitory concentration (IC50) was under 300 nM.

As to `CCCc1nnc([C@H]2CC[C@@H](N(C)C(=O)c3ccc(-c4ccccc4)cc3)C2)o1` [Compound A2, biphenyl-4-carboxylic acid methyl-[(1R,3S)-3-(5-propyl-[1,3,4]oxadiazol-2-yl)-cyclopentyl]-amide], the 50% inhibitory concentration (IC50) was under 300 nM.

Turning to `CCCc1nnc([C@H]2CC[C@@H](N(C)C(=O)c3ccc(C#Cc4ccc(F)cc4)cc3)C2)o1` [Compound A3, 4-(4-fluoro-phenylethynyl)-N-methyl-N-[(1 R,3S)-3-(5-propyl-[1,3,4]oxadiazol-2-yl)-cyclopentyl]-benzamide], the concentration for half-maximal inhibition (IC50) is under 300 nM.

For the compound `CCCc1nnc([C@H]2CC[C@@H](N(C)C(=O)c3ccc(-c4ccc(C#N)cc4)cc3)C2)o1` [Compound A4, 4′-cyano-biphenyl-4-carboxylic acid methyl-[(1 R,3S)-3-(5-propyl-[1,3,4]oxadiazol-2-yl)-cyclopentyl]-amide], the concentration for half-maximal inhibition (IC50) is under 300 nM.

Consider `CCc1nnc([C@H]2CC[C@@H](N(C)C(=O)c3ccc(-c4nc5ccccc5o4)cc3)C2)o1` [Compound A5, 4-benzoxazol-2-yl-N-[(1 R,3S)-3-(5-ethyl-[1,3,4]oxadiazol-2-yl)-cyclopentyl]-N-methyl-benzamide], for which the half-inhibitory concentration (IC50) is under 300 nM.

Regarding `CCc1nnc([C@H]2CC[C@@H](N(C)C(=O)c3ccc(-c4ccc(C#N)cc4)cc3)C2)o1` [Compound A6, 4′-cyano-biphenyl-4-carboxylic acid [(1R,3S)-3-(5-ethyl-[1,3,4]oxadiazol-2-yl)-cyclopentyl]-methyl-amide], the IC50 was under 300 nM.

Take `CCc1nnc([C@H]2CC[C@@H](N(C)C(=O)c3ccc(-c4nc5ccccc5[nH]4)cc3)C2)o1` [Compound A7, 4-(1H-benzimidazol-2-yl)-N-[(1 R,3S)-3-(5-ethyl-[1,3,4]oxadiazol-2-yl)-cyclopentyl]-N-methyl-benzamide]: the 50% inhibitory concentration (IC50) was under 300 nM.

Regarding `CCc1nnc([C@H]2CC[C@@H](N(C)C(=O)c3ccc(-c4ccncc4)cc3)C2)o1` [Compound A8, N-[(1R,3S)-3-(5-ethyl-[1,3,4]oxadiazol-2-yl)-cyclopentyl]-N-methyl-4-pyridin-4-yl-benzamide], the concentration for half-maximal inhibition (IC50) fell in the range of 300 to 3000 nM.

In the case of `CC(C)c1nnc([C@H]2CC[C@@H](N(C)C(=O)c3ccc(-c4nc5ccccc5o4)cc3)C2)o1` [Compound A9, 4-benzoxazol-2-yl-N-[(1 R,3S)-3-(5-isopropyl-[1,3,4]oxadiazol-2-yl)-cyclopentyl]-N-methyl-benzamide], the IC50 was under 300 nM.

Consider `CC(C)c1nnc([C@H]2CC[C@@H](N(C)C(=O)c3ccc(-c4ccc(C#N)cc4)cc3)C2)o1` [Compound A10, 4′-cyano-biphenyl-4-carboxylic acid [(1R,3S)-3-(5-isopropyl-[1,3,4]oxadiazol-2-yl)-cyclopentyl]-methyl-amide], for which the 50% inhibitory concentration (IC50) was under 300 nM.

Take `CC(C)c1nnc([C@H]2CC[C@@H](N(C)C(=O)c3ccc(-c4nc5ccccc5[nH]4)cc3)C2)o1` [Compound A11, 4-(1H-benzimidazol-2-yl)-N-[(1 R,3S)-3-(5-isopropyl-[1,3,4]oxadiazol-2-yl)-cyclopentyl]-N-methyl-benzamide]: the IC50 is under 300 nM.

With `CC(C)c1nnc([C@H]2CC[C@@H](N(C)C(=O)c3ccc(-c4ccncc4)cc3)C2)o1` [Compound A12, N-[(1R,3S)-3-(5-isopropyl-[1,3,4]oxadiazol-2-yl)-cyclopentyl]-N-methyl-4-pyridin-4-yl-benzamide], the IC50 is 300 to 3000 nM.

For `Cc1nnc([C@H]2CC[C@@H](N(C)C(=O)c3ccc(-c4nc5ccccc5o4)cc3)C2)o1` [Compound A13, 4-benzoxazol-2-yl-N-methyl-N-[(1 R,3S)-3-(5-methyl-[1,3,4]oxadiazol-2-yl)-cyclopentyl]-benzamide], the concentration for half-maximal inhibition (IC50) was under 300 nM.

Take `Cc1nnc([C@H]2CC[C@@H](N(C)C(=O)c3ccc(-c4nc5ccccc5s4)cc3)C2)o1` [Compound A14, 4-benzothiazol-2-yl-N-methyl-N-[(1 R,3S)-3-(5-methyl-[1,3,4]oxadiazol-2-yl)-cyclopentyl]-benzamide]: the 50% inhibitory concentration (IC50) was under 300 nM.

Take `Cc1nnc([C@H]2CC[C@@H](N(C)C(=O)c3ccc(-c4ccncc4)cc3)C2)o1` [Compound A15, N-methyl-N-[(1R,3S)-3-(5-methyl-[1,3,4]oxadiazol-2-yl)-cyclopentyl]-4-pyridin-4-yl-benzamide]: the half-inhibitory concentration (IC50) lay within 300 to 3000 nM.

Take `Cc1nnc([C@H]2CC[C@@H](N(C)C(=O)c3ccc(-c4ccc(Cl)cc4)cc3)C2)o1` [Compound A16, 4′-chloro-biphenyl-4-carboxylic acid methyl-[(1R,3S)-3-(5-methyl-[1,3,4]oxadiazol-2-yl)-cyclopentyl]-amide]: the IC50 is under 300 nM.

As for `Cc1nnc([C@H]2CC[C@@H](N(C)C(=O)c3ccc(-c4nc5ccccc5[nH]4)cc3)C2)o1` [Compound A17, 4-(1H-benzimidazol-2-yl)-N-methyl-N-[(1 R,3S)-3-(5-methyl-[1,3,4]oxadiazol-2-yl)-cyclopentyl]-benzamide], the half-inhibitory concentration (IC50) was under 300 nM.

For `COc1cc(C(=O)N(C)[C@@H]2CC[C@H](c3nnc(C)o3)C2)ccc1-c1nc2ccccc2o1` [Compound A18, 4-benzoxazol-2-yl-3-methoxy-N-methyl-N-[(1 R,3S)-3-(5-methyl-[1,3,4]oxadiazol-2-yl)-cyclopentyl]-benzamide], the half-inhibitory concentration (IC50) was under 300 nM.

With `Cc1nnc([C@H]2CC[C@@H](N(C)C(=O)c3ccc(-c4nc5cc(Cl)ccc5o4)cc3)C2)o1` [Compound A19, 4-(5-chloro-benzoxazol-2-yl)-N-methyl-N-[(1 R,3S)-3-(5-methyl-[1,3,4]oxadiazol-2-yl)-cyclopentyl]-benzamide], the IC50 is under 300 nM.

On to `Cc1nnc([C@H]2CC[C@@H](N(C)C(=O)c3ccc(C#Cc4ccc(Cl)cc4)cc3)C2)o1` [Compound A21, 4-(4-chloro-phenylethynyl)-N-methyl-N-[(1 R,3S)-3-(5-methyl-[1,3,4]oxadiazol-2-yl)-cyclopentyl]-benzamide], for which the IC50 was under 300 nM.

Consider `Cc1nnc([C@H]2CC[C@@H](N(C)C(=O)c3ccc(C#Cc4ccncc4)cc3)C2)o1` [Compound A22, N-methyl-N-[(1R,3S)-3-(5-methyl-[1,3,4]oxadiazol-2-yl)-cyclopentyl]-4-pyridin-4-ylethynyl-benzamide], for which the half-maximal inhibitory concentration (IC50) was in the range of 300 to 3000 nM.

In the case of `Cc1nnc([C@H]2CC[C@@H](N(C)C(=O)c3ccc(-c4nc5ccccc5o4)cn3)C2)o1` [Compound A23, 5-benzoxazol-2-yl-pyridine-2-carboxylic acid methyl-[(1R,3S)-3-(5-methyl-[1,3,4]oxadiazol-2-yl)-cyclopentyl]-amide], the IC50 is 300 to 3000 nM.

Take `Cc1nnc([C@H]2CC[C@@H](N(C)C(=O)c3ccc(-c4ccccc4)cc3)C2)o1` [Compound A24, biphenyl-4-carboxylic acid methyl-[(1R,3S)-3-(5-methyl-[1,3,4]oxadiazol-2-yl)-cyclopentyl]-amide]: the IC50 was under 300 nM.

In the case of `Cc1nnc([C@H]2CC[C@@H](N(C)C(=O)c3ccc(-c4ccc(C#N)cc4)cc3)C2)o1` [Compound A25, 4′-cyano-biphenyl-4-carboxylic acid methyl-[(1R,3S)-3-(5-methyl-[1,3,4]oxadiazol-2-yl)-cyclopentyl]-amide], the half-maximal inhibitory concentration (IC50) was under 300 nM.

In the case of `Cc1cnc([C@H]2CC[C@@H](N(C)C(=O)c3ccc(-c4nc5ccccc5o4)cc3)C2)o1` [Compound A26, 4-benzoxazol-2-yl-N-methyl-N-[(1 R,3S)-3-(5-methyl-oxazol-2-yl)-cyclopentyl]-benzamide], the IC50 is under 300 nM.
